Assay results: patent US20240158446A1, “CYCLIC COMPOUND HAVING SELECTIVE INHIBITORY ACTION ON KRAS OVER HRAS AND NRAS” (CHUGAI SEIYAKU KABUSHIKI KAISHA, priority 2021, published 2024)
Read-outs that look alike come from different tables or passages of the source. *1 amine or outer side, *2 acyl side, *3 side chain or, on linkers, in order; H or OH if unused. Where a SMILES comes first, the peptide text is derived from it. Bridges are numbered along the chain shown (N, C = ends). [ ]: non-standard residue; d: D form. The star is where a group is joined. hPhe(3-Cl-4-CF3) = N[C@@H](CCc1ccc(C(F)(F)F)c(Cl)c1)C(=O)O; X32 = COCCN([C@@H](Cc1ccc(C(F)(F)F)cc1)C(=O)[*:2])[*:1]; NPrPhe(4-CF3) = CCCN[C@@H](Cc1ccc(C(F)(F)F)cc1)C(=O)O; NMeAbu(4,4,4-F3) = CN[C@@H](CC(F)(F)F)C(=O)O; NEtPhe(4-F) = CCN[C@@H](Cc1ccc(F)cc1)C(=O)O; X7 = CCN([C@H](C(=O)[*:2])C1CCCC1)[*:1]; NMeGly(cPent) = CN[C@H](C(=O)O)C1CCCC1; NMeD = CN[C@@H](CC(=O)O)C(=O)O; NMeL = CN[C@@H](CC(C)C)C(=O)O; Morpholide = C1CN(*)CCO1; NMeA = CN[C@@H](C)C(=O)O; Ac5c = NC1(C(=O)O)CCCC1; Aze = O=C(O)[C@@H]1CCN1; Sar = CNCC(=O)O

Columns and labels:
[1] = target: GDP-bound KRAS wild-type protein (Homo sapiens, UniProt P01116); experiment: Binding to KRAS by surface plasmon resonance (SPR), Single Cycle Kinetics; settings: GDP-bound KRAS wild-type protein, read-out: KRAS KD
Sequence of GDP-bound KRAS wild-type protein (P01116 whole entry): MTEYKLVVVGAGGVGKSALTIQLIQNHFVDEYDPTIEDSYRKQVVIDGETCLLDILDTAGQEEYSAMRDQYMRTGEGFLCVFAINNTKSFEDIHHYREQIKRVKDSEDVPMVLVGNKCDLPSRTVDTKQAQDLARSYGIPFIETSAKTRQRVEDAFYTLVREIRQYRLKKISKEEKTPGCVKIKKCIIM

[2] = target: GDP-bound HRAS wild-type protein (Homo sapiens, UniProt P01112); experiment: Binding to HRAS by surface plasmon resonance (SPR), Single Cycle Kinetics; settings: for HRAS/KRAS (ratio of KD value for HRAS to KD value for KRAS): SPR, GDP-bound HRAS wild-type protein vs GDP-bound KRAS wild-type protein
Sequence of GDP-bound HRAS wild-type protein (P01112 whole entry): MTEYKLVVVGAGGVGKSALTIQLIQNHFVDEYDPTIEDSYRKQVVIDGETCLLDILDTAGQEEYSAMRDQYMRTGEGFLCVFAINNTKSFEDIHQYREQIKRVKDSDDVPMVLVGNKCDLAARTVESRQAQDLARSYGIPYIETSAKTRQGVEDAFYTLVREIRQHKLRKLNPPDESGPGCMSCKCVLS

[3] = target: GDP-bound NRAS wild-type protein (Homo sapiens, UniProt P01111); experiment: Binding to NRAS by surface plasmon resonance (SPR), Single Cycle Kinetics; settings: for NRAS/KRAS (ratio of KD value for NRAS to KD value for KRAS): SPR, GDP-bound NRAS wild-type protein vs GDP-bound KRAS wild-type protein
Sequence of GDP-bound NRAS wild-type protein (P01111 whole entry): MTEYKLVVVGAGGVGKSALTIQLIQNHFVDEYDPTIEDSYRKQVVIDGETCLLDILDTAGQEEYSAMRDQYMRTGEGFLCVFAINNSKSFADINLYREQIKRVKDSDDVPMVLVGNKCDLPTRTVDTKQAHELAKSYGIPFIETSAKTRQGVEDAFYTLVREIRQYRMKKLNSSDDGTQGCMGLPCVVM

[4] = SPR Single Cycle Kinetics, 1:1 binding model

Row | Kd [1, 4] [nM] | Kd ([1]; SPR, Single Cycle Kinetics) [nM] | SMILES | HRAS/KRAS (ratio of KD value for HRAS to KD value for KRAS) [2] | NRAS/KRAS (ratio of KD value for NRAS to KD value for KRAS) [3] | HRAS/KRAS (ratio of KD value with respect to GDP-bound HRAS wild-type protein to KD value with respect to KRAS) ([2]; SPR KD ratio HRAS/KRAS, class symbols) | NRAS/KRAS (ratio of KD value with respect to GDP-bound NRAS wild-type protein to KD value with respect to KRAS) ([3]; SPR KD ratio NRAS/KRAS, class symbols)
1 | 1.2 | – | CCCN1C(=O)CN(C)C(=O)[C@@H]2CCN2C(=O)[C@H]([C@@H](C)CC)NC(=O)[C@H](CC(C)C)N(C)C(=O)C[C@@H](C(=O)N(C)C)NC(=O)[C@H](C2CCCC2)N(C)C(=O)C2(CCCC2)NC(=O)[C@@H]2CCCN2C(=O)[C@H](CCc2ccc(C(F)(F)F)c(Cl)c2)NC(=O)CN(C)C(=O)[C@@H]1Cc1ccc(C(F)(F)F)cc1 [PP0373] ([NMeL]I[Aze][Sar][NPrPhe(4-CF3)][Sar][hPhe(3-Cl-4-CF3)]P[Ac5c][NMeGly(cPent)]D-NMe2; lactam N-11) | B (a compound having 3 or more and less than 10 is denoted as B) | B (a compound having 3 or more and less than 10 is denoted as B) | – | –
2 | – | 1.4 | CCO[C@@H]1C[C@H]2C(=O)NC3(CC(C)(C)C3)C(=O)N(C)[C@@H](C(CC)CC)C(=O)N(C)[C@H](C(=O)N(C)C)CC(=O)N(C)[C@@H](C(C)C)C(=O)N[C@@H]([C@@H](C)CC)C(=O)N(C)CC(=O)N(C)[C@H]3C/C=C\CCN(C3=O)[C@@H](Cc3ccc(C)cc3)C(=O)N(C)CC(=O)N[C@@H](CCc3ccc(Cl)c(Cl)c3)C(=O)N2C1 [PP2122] | A (a compound having 10 or more and less than 20 is denoted as A) | AA (a compound having 20 or more is denoted as AA) | – | –
3 | – | 0.087 | CCC[C@H]1C(=O)N[C@@H](C2CCCC2)C(=O)N(C)CC(=O)N(C)[C@H]2C/C=C\CCN(C2=O)[C@@H](Cc2ccc(C)cc2)C(=O)N(C)CC(=O)N[C@@H](CCc2cc(F)c(C(F)(F)F)c(F)c2)C(=O)N2C[C@H](OCC)C[C@H]2C(=O)NC2(CC(C)(C)C2)C(=O)N(C)[C@@H](CC(C)(C)C)C(=O)N(C)[C@H](C(=O)N(C)C)CC(=O)N1C [PP2989] | A (a compound having 10 or more and less than 20 is denoted as A) | AA (a compound having 20 or more is denoted as AA) | – | –
4 | 0.2 | – | CC[C@H](C)[C@@H]1NC(=O)[C@H](CC(C)C)N(C)C(=O)C[C@@H](C(=O)N2CCOCC2)N(C)C(=O)[C@H](C2CCCC2)N(C)C(=O)C2(CCCC2)NC(=O)[C@@H]2CCCN2C(=O)[C@H](CCc2ccc(C(F)(F)F)c(Cl)c2)NC(=O)CN(C)C(=O)[C@H](Cc2ccc(F)cc2)N(CC)C(=O)[C@@H]2CCN2C(=O)[C@H](C)N(C)C1=O [PP0218] ([NMeL]I[NMeA][Aze][NEtPhe(4-F)][Sar][hPhe(3-Cl-4-CF3)]P[Ac5c][NMeGly(cPent)][NMeD]-Morpholide; lactam N-11) | C (A compound having a KD ratio of 0.1 or more and less than 3 is denoted as C) | C (A compound having a KD ratio of 0.1 or more and less than 3 is denoted as C) | – | –
5 | – | 0.99 | CC[C@H](C)[C@@H]1NC(=O)[C@H](COC)N(C)C(=O)C[C@@H](C(=O)N2CCOCC2)N(C)C(=O)[C@H](C2CCCC2)N(C)C(=O)C2(CCCC2)NC(=O)[C@@H]2CC(F)(F)CN2C(=O)[C@H](CCc2cc(F)c(C(F)(F)F)c(F)c2)NC(=O)CN(C)C(=O)[C@H](Cc2ccc(C(F)(F)F)cc2)N2CCCCC[C@@H](C2=O)N(C)C(=O)CN(C)C1=O [PP0846] | B (a compound having 3 or more and less than 10 is denoted as B) | B (a compound having 3 or more and less than 10 is denoted as B) | – | –
6 | 0.29 | – | CCC[C@H]1C(=O)N[C@@H]([C@@H](C)CC)C(=O)N(C)CC(=O)N(C)[C@H]2C/C=C\CCN(C2=O)[C@@H](Cc2ccc(C(F)(F)F)cc2)C(=O)N(C)CC(=O)N[C@@H](CCc2ccc3sc(C)c(C)c3c2)C(=O)N2C[C@H](OCC)C[C@H]2C(=O)NC2(CC(C)(C)C2)C(=O)N(C)[C@@H](C2CCCC2)C(=O)N(C)[C@H](C(=O)N(C)C)CC(=O)N1C [PP2889] | – | – | A (a compound having 10 or more and less than 20 is denoted as A) | A (a compound having 10 or more and less than 20 is denoted as A)
7 | 0.19 | – | CCCN1C(=O)CN(C)C(=O)CN(C)C(=O)[C@H]([C@@H](C)CC)NC(=O)[C@H](CC(F)(F)F)N(C)C(=O)C[C@@H](C(=O)N2CCOCC2)N(C)C(=O)[C@H](C2CCCC2)N(C)C(=O)C2(CCCC2)NC(=O)[C@@H]2CCCN2C(=O)[C@H](CCc2ccc(C(F)(F)F)c(Cl)c2)NC(=O)CN(C)C(=O)[C@@H]1Cc1ccc(C(F)(F)F)cc1 [PP0187] ([NMeAbu(4,4,4-F3)]I[Sar][Sar][NPrPhe(4-CF3)][Sar][hPhe(3-Cl-4-CF3)]P[Ac5c][NMeGly(cPent)][NMeD]-Morpholide; lactam N-11) | C (A compound having a KD ratio of 0.1 or more and less than 3 is denoted as C) | B (a compound having 3 or more and less than 10 is denoted as B) | – | –
8 | – | 0.19 | CCO[C@@H]1C[C@H]2C(=O)NC3(CC(C)(C)C3)C(=O)N(C)[C@@H](C(CC)CC)C(=O)N(C)[C@H](C(=O)N(C)C)CC(=O)N(C)[C@@H](CC)C(=O)N[C@@H]([C@@H](C)CC)C(=O)N(C)CC(=O)N(C)[C@H]3C/C=C\CCN(C3=O)[C@@H](Cc3ccc(C(F)(F)F)cc3)C(=O)N(C)CC(=O)N[C@@H](CCc3cc(F)c(C(F)(F)F)c(F)c3)C(=O)N2C1 [PP2062] | A (a compound having 10 or more and less than 20 is denoted as A) | AA (a compound having 20 or more is denoted as AA) | – | –
9 | 2 | – | CC[C@H](C)[C@@H]1NC(=O)[C@H](CC(C)C)N(C)C(=O)C[C@@H](C(=O)N2CCOCC2)N(C)C(=O)[C@H](C2CCCC2)N(C)C(=O)C2(CCCC2)NC(=O)[C@@H]2CCCN2C(=O)[C@H](CCc2ccc(C(F)(F)F)c(Cl)c2)NC(=O)CN(C)C(=O)[C@H](C2CCCC2)N(CC)C(=O)[C@@H]2CCN2C(=O)[C@H](C)N(C)C1=O [PP0003] ([NMeL]I[NMeA][Aze][X7][Sar][hPhe(3-Cl-4-CF3)]P[Ac5c][NMeGly(cPent)][NMeD]-Morpholide; lactam N-11) | C (A compound having a KD ratio of 0.1 or more and less than 3 is denoted as C) | C (A compound having a KD ratio of 0.1 or more and less than 3 is denoted as C) | – | –
10 | 0.21 | – | CC[C@H](C)[C@@H]1NC(=O)[C@H](CC(C)C)N(C)C(=O)C[C@@H](C(=O)N2CCOCC2)N(C)C(=O)[C@H](C2CCCC2)N(C)C(=O)C2(CCCC2)NC(=O)[C@@H]2CCCN2C(=O)[C@H](CCc2ccc(C(F)(F)F)c(Cl)c2)NC(=O)CN(C)C(=O)[C@H](Cc2ccc(C(F)(F)F)cc2)N(CCOC)C(=O)[C@@H]2CCN2C(=O)[C@H](C)N(C)C1=O [PP0118] ([NMeL]I[NMeA][Aze][X32][Sar][hPhe(3-Cl-4-CF3)]P[Ac5c][NMeGly(cPent)][NMeD]-Morpholide; lactam N-11) | C (A compound having a KD ratio of 0.1 or more and less than 3 is denoted as C) | C (A compound having a KD ratio of 0.1 or more and less than 3 is denoted as C) | – | –
11 | – | 0.16 | C=CCN1CC(=O)N(C)[C@H]2C/C=C\CCN(C2=O)[C@@H](Cc2ccc(C(F)(F)F)cc2)C(=O)N(C)CC(=O)N[C@@H](CCc2cc(F)c(C(F)(F)F)c(F)c2)C(=O)N2C[C@H](OCC)C[C@H]2C(=O)NC2(CC(C)(C)C2)C(=O)N(C)[C@@H](C2CCCC2)C(=O)N(C)[C@H](C(=O)N(C)C)CC(=O)N(C)[C@@H](CCC)C(=O)N[C@@H]([C@@H](C)CC)C1=O [PP2102] | A (a compound having 10 or more and less than 20 is denoted as A) | A (a compound having 10 or more and less than 20 is denoted as A) | – | –
12 | – | 0.078 | CCO[C@@H]1C[C@H]2C(=O)NC3(CCC3)C(=O)N(C)[C@@H](C3CCCC3)C(=O)N(C)[C@H](C(=O)N(C)C)CC(=O)N(C)[C@@H](CC)C(=O)N[C@@H]([C@@H](C)CC)C(=O)NCC(=O)N(C)[C@H]3C/C=C\CCN(C3=O)[C@@H](Cc3ccc(C(F)(F)F)cc3)C(=O)N(C)CC(=O)N[C@@H](CCc3cc(F)c(C(F)(F)F)c(F)c3)C(=O)N2C1 [PP0983, (2S,8S,12R,14S,20S,23S,27S,30S,36S,38Z)-20-cyclopentyl-8-[2-[3,5-difluoro-4-(trifluoromethyl)phenyl]ethyl]-12-ethoxy-27-ethyl-N,N,4,19,22,26,35-heptamethyl-30-[(1S)-1-methylpropyl]-3,6,9,15,18,21,25,28,31,34,42-undecaoxo-2-[[4-(trifluoromethyl)phenyl]methyl]spiro[1,4,7,10,16,19,22,26,29,32,35-undecazatricyclo[34.5.1.0^10,14]dotetracont-38-ene-17,1′-cyclobutane]-23-carboxamide] | A (a compound having 10 or more and less than 20 is denoted as A) | A (a compound having 10 or more and less than 20 is denoted as A) | – | –
13 | – | 0.24 | CCO[C@@H]1C[C@H]2C(=O)NC3(CCC3)C(=O)N(C)[C@@H](C3CCCC3)C(=O)N(C)[C@H](C(=O)N(C)C)CC(=O)N(C)[C@H]3CCCCCc4ccc(cc4)C[C@@H](C(=O)N(C)CC(=O)N[C@@H](CCc4ccc(C(F)(F)F)c(OC)c4)C(=O)N2C1)N1CC/C=C\C[C@@H](C1=O)N(C)C(=O)CN(C)C(=O)[C@H]([C@@H](C)CC)NC3=O [PP2262] | B (a compound having 3 or more and less than 10 is denoted as B) | A (a compound having 10 or more and less than 20 is denoted as A) | – | –
